Type in all cases: functional, organism-based
For one assay, the system named is rhinovirus B4. Nature of the assay: Evaluated for inhibitory activity against rhinovirus type 4. Conditions: Rhinovirus B.
In the next assay the test system is rhinovirus B5. Nature of the assay: Evaluated for inhibitory activity against rhinovirus type 5. As to conditions: Rhinovirus B.
A further assay relates to rhinovirus A1B. Nature of the assay: Inhibitory activity against rhinovirus type 1B. As to conditions: Rhinovirus A.
A further assay concerns rhinovirus A2. Put plainly: Evaluated for inhibitory activity against rhinovirus type 2. As to conditions: Rhinovirus A.

Each structure is given as a SMILES string. Where only a bound is given, the exact number is not on record here.

Broadly, the IC50 is the concentration that inhibits the measured activity by half. High values mean lower potency, low ones higher potency.

Regarding `Clc1nc(Nc2ccc(Br)cc2)c2ncn(Cc3ccccc3)c2n1`, the half-inhibitory concentration (IC50) in the assay with rhinovirus B4 is 7.8 µM; in the assay on rhinovirus B5, 9.5 µM; in the assay on rhinovirus A1B, 0.3 µM; in the assay with rhinovirus A2, 2.2 µM.

Turning to `Cc1ccc(Cn2cnc3c(N(C)c4ccccc4)nc(C(F)(F)F)nc32)cc1`, the concentration for half-maximal inhibition (IC50) with rhinovirus B4 was 5.1 µM; with rhinovirus B5, over 8 µM; in the assay on rhinovirus A1B it was 1.9 µM; with rhinovirus A2, 2.7 µM.

`CCCCOc1ccc(Nc2nc(Cl)nc3c2ncn3Cc2ccccc2)cc1` registered a half-inhibitory concentration (IC50) with rhinovirus A1B of over 40 µM.

Turning to `CC(C)Oc1cccc(Nc2nc(Cl)nc3c2ncn3Cc2ccccc2)c1`, the results for the IC50 in the assay with rhinovirus B4, in the assay on rhinovirus A1B and in the assay on rhinovirus A2 were 8.3 µM, 2 µM and 3.6 µM, respectively.

In the assay with rhinovirus A1B, `CN(C)c1ccc(Nc2nc(Cl)nc3c2ncn3Cc2ccccc2)cc1` yielded an IC50 of over 40 µM.

In the assay on rhinovirus A1B, `CC(C)Oc1ccc(Nc2nc(Cl)nc3c2ncn3Cc2ccccc2)cc1` gave a concentration for half-maximal inhibition (IC50) of over 40 µM.

Consider `CCOC(=O)c1ccc(Nc2nc(Cl)nc3c2ncn3Cc2ccccc2)cc1`, for which, in the assay on rhinovirus A1B, the IC50 was over 10 µM.

For the molecule `Clc1nc(Nc2cccc(Br)c2)c2ncn(Cc3ccccc3)c2n1`, the half-maximal inhibitory concentration (IC50) in the assay with rhinovirus B4 came out at 5.7 µM; in the assay on rhinovirus B5, 7.6 µM; with rhinovirus A1B, 2.9 µM; in the assay with rhinovirus A2 it was 2.8 µM.

`Cc1ccc(Cn2cnc3c(N(C)C)nc(C(F)(F)F)nc32)cc1` had a concentration for half-maximal inhibition (IC50) in the assay with rhinovirus A1B of 0.03 µM.

`CN(C)c1cccc(Nc2nc(Cl)nc3c2ncn3Cc2ccccc2)c1`: the IC50 was 8.4 µM in the assay with rhinovirus B4, 8.5 µM in the assay on rhinovirus B5, 2.4 µM with rhinovirus A1B and 3.1 µM in the assay with rhinovirus A2.

Turning to `N#Cc1ccc(Nc2nc(Cl)nc3c2ncn3Cc2ccccc2)cc1`, 9.4 µM corresponded to half-maximal inhibition in the assay on rhinovirus A1B (IC50).

`CS(=O)(=O)c1cccc(Nc2nc(Cl)nc3c2ncn3Cc2ccccc2)c1` showed an IC50 with rhinovirus A1B of over 40 µM.

The molecule `O=[N+]([O-])c1cccc(Nc2nc(Cl)nc3c2ncn3Cc2ccccc2)c1` had a half-inhibitory concentration (IC50) in the assay on rhinovirus A1B of over 10 µM.

In the case of `Nc1ccc(Nc2nc(Cl)nc3c2ncn3Cc2ccccc2)cc1`, the IC50 in the assay with rhinovirus A1B is over 20 µM.

With `CSc1ccc(Nc2nc(Cl)nc3c2ncn3Cc2ccccc2)cc1`, the figures for the IC50 in the assay on rhinovirus B4, with rhinovirus A1B and with rhinovirus A2 were 8.7 µM, 0.14 µM and 11 µM, respectively.

In the case of `Clc1nc(Nc2ccccc2)c2ncn(Cc3ccccc3)c2n1`, the 50% inhibitory concentration (IC50) was 14.2 µM in the assay with rhinovirus B4, 16.3 µM with rhinovirus B5, 1.65 µM with rhinovirus A1B and 8.3 µM with rhinovirus A2.

`CC(=O)Nc1cccc(Nc2nc(Cl)nc3c2ncn3Cc2ccccc2)c1` had an IC50 with rhinovirus A1B of 1.3 µM.

As to `Nc1cccc(Nc2nc(Cl)nc3c2ncn3Cc2ccccc2)c1`, in the assay with rhinovirus A1B, the IC50 was over 10 µM.

Take `Cc1ccc(Nc2nc(Cl)nc3c2ncn3Cc2ccccc2)cc1`: the concentration for half-maximal inhibition (IC50) in the assay on rhinovirus A1B came to 0.3 µM; in the assay on rhinovirus A2, 1.2 µM.

In turn, `CCCCc1ccc(Nc2nc(Cl)nc3c2ncn3Cc2ccccc2)cc1` came in with an IC50 in the assay with rhinovirus A1B of over 10 µM.

For the molecule `CCCCOc1cccc(Nc2nc(Cl)nc3c2ncn3Cc2ccccc2)c1`, in the assay with rhinovirus A1B, half-maximal inhibition (IC50) required 22 µM.

Molecule `CC(=O)Nc1ccc(Nc2nc(Cl)nc3c2ncn3Cc2ccccc2)cc1` registered an IC50 with rhinovirus A1B of over 20 µM.

`Fc1cccc(Nc2nc(Cl)nc3c2ncn3Cc2ccccc2)c1`: the IC50 with rhinovirus B4 amounted to 5.5 µM; with rhinovirus B5 it was 5.6 µM; in the assay with rhinovirus A1B it was 1.2 µM; with rhinovirus A2, 5.6 µM.

`Cc1ccc(Cn2cnc3c(Nc4ccccc4)nc(Cl)nc32)cc1`: the half-maximal inhibitory concentration (IC50) with rhinovirus B4 is 6.4 µM; in the assay with rhinovirus B5, over 8 µM; in the assay with rhinovirus A1B, 1 µM; in the assay with rhinovirus A2, 3.9 µM.

For the molecule `CCOC(=O)c1cccc(Nc2nc(Cl)nc3c2ncn3Cc2ccccc2)c1`, the IC50 in the assay on rhinovirus A1B was over 10 µM.

Consider `FC(F)(F)c1ccc(Nc2nc(Cl)nc3c2ncn3Cc2ccccc2)cc1`, for which the half-maximal inhibitory concentration (IC50) was found to be 85 µM in the assay with rhinovirus B4, 200 µM in the assay on rhinovirus B5, 0.3 µM with rhinovirus A1B and 16.6 µM in the assay on rhinovirus A2.

Regarding `CS(=O)(=O)c1ccc(Nc2nc(Cl)nc3c2ncn3Cc2ccccc2)cc1`, the IC50 with rhinovirus B4 worked out at 4.5 µM; in the assay on rhinovirus A1B, 2 µM; with rhinovirus A2, 10.5 µM.

Consider `Fc1ccc(Nc2nc(Cl)nc3c2ncn3Cc2ccccc2)cc1`, for which the IC50 in the assay with rhinovirus B4 stood at 6.8 µM; with rhinovirus B5 it was 10 µM; with rhinovirus A1B, 1.28 µM; in the assay on rhinovirus A2 it was 6.2 µM.

The values are drawn from ChEMBL document CHEMBL1124760, “Antirhinovirus activity of 6-anilino-9-benzyl-2-chloro-9H-purines” (J Med Chem, 1990).
